Experimental data: patent publication US20260265329A1, “POLYPEPTIDE AND DERIVATIVE THEREOF, COMPOSITION, AND USE THEREOF” (HANGZHOU SCIWIND BIOSCIENCES CO., LTD., priority 2023, published 2026)
Starred links: 1 amine or outer side, 2 acyl side, 3 side chain; linkers in the order of their positions; H or OH if unused. Non-standard residues stand in square brackets, D forms with d. Residues, ends and D or L forms follow the SMILES beside them. *: point of attachment. C20 diacid = O=C(O)CCCCCCCCCCCCCCCCCCC(=O)*; C18 diacid = O=C(O)CCCCCCCCCCCCCCCCC(=O)*; γGlu = O=C(O)[C@H](CCC(=O)[*:2])N[*:1]; βAsp = O=C(O)[C@H](CC(=O)[*:2])N[*:1]; Hyp = O=C(O)[C@@H]1C[C@@H](O)CN1; Trx = NC[C@H]1CC[C@H](C(=O)O)CC1; AEEA = NCCOCCOCC(=O)O; Inp = O=C(O)C1CCNCC1

Molecular target: T1, human amylin receptors (Homo sapiens, UniProt O60896+P30988)
T1 construct: host or cells: CHO-K1/Ga15/AMY3 cells, further stably transfected with a CRE-luciferase plasmid
T1 sequence (P30988 25-474): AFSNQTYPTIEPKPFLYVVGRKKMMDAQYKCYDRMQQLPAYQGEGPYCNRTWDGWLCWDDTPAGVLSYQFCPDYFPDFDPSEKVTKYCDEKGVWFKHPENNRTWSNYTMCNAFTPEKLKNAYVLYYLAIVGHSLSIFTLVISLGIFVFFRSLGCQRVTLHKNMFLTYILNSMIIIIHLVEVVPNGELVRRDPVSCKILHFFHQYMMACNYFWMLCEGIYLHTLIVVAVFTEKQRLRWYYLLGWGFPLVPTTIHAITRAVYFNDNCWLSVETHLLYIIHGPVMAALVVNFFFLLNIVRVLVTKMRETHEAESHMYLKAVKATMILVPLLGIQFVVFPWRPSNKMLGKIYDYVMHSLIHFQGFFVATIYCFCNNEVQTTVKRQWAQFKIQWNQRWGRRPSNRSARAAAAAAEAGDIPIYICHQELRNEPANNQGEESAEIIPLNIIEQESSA
T1 sequence (O60896 24-148 partner): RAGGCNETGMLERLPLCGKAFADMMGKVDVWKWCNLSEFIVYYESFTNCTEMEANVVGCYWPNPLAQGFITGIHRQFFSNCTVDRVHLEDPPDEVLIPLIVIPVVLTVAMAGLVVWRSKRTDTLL
Experiment: Luciferase assay in stably transfected amylin receptor/CRE-luc CHO cell line
Assay type: cell-based
Settings: for Relative activity: EC50 ratio of Cagrilintide to the compound, Cagrilintide 100%; for EC50: amylin receptor/CRE-luc CHO cells, 24 hours incubation, luminescence

| Structure (SMILES) | Relative activity [%] | EC50 [nM] |
| --- | --- | --- |
| CC[C@H](C)[C@H](NC(=O)[C@@H]1CCCN1C(=O)[C@H](CCCCN)NC(=O)[C@H](CC(C)C)NC(=O)[C@H](CC(N)=O)NC(=O)[C@H](CC(N)=O)NC(=O)[C@H](CO)NC(=O)[C@H](CO)NC(=O)[C@H](Cc1c[nH]cn1)NC(=O)[C@H](CCCNC(=N)N)NC(=O)[C@H](CC(C)C)NC(=O)[C@H](Cc1ccccc1)NC(=O)[C@H](CC(=O)O)NC(=O)[C@H](C)NC(=O)[C@H](CC(C)C)NC(=O)[C@H](CCCNC(=N)N)NC(=O)[C@H](CCC(N)=O)NC(=O)[C@@H](NC(=O)[C@H](C)NC(=O)[C@H](C)NC(=O)[C@@H](NC(=O)[C@H](CO)NC(=O)[C@H](CC(C)C)NC(=O)[C@H](CCC(N)=O)NC(=O)[C@H](CO)NC(=O)[C@H](C)NC(=O)COCCOCCNC(=O)COCCOCCNC(=O)C1CCN(C(=O)CCCCCCCCCCCCCCCCCCC(=O)O)CC1)[C@@H](C)O)[C@@H](C)O)C(=O)N[C@@H](CC(C)C)C(=O)N1CCC[C@H]1C(=O)N1CCC[C@H]1C(=O)N[C@H](C(=O)N[C@@H](CC(N)=O)C(=O)N[C@H](C(=O)NCC(=O)N[C@@H](CO)C(=O)N[C@@H](CC(N)=O)C(=O)N[C@H](C(=O)N1C[C@H](O)C[C@H]1C(N)=O)[C@@H](C)O)C(C)C)[C@@H](C)O [M36] ({C20 diacid-Inp-AEEA-AEEA}-ASQLSTAATQRLADFLRHSSNNLKPILPPTNVGSNT[Hyp]-NH2) |  | 0.059 |
| CC[C@H](C)[C@H](NC(=O)[C@@H]1CCCN1C(=O)[C@H](CCCCN)NC(=O)[C@H](CC(C)C)NC(=O)[C@H](CC(N)=O)NC(=O)[C@H](CC(N)=O)NC(=O)[C@H](CO)NC(=O)[C@H](CO)NC(=O)[C@H](Cc1c[nH]cn1)NC(=O)[C@H](CCCNC(=N)N)NC(=O)[C@H](CC(C)C)NC(=O)[C@H](Cc1ccccc1)NC(=O)[C@H](CC(=O)O)NC(=O)[C@H](C)NC(=O)[C@H](CC(C)C)NC(=O)[C@H](CCCNC(=N)N)NC(=O)[C@H](CCC(N)=O)NC(=O)[C@@H](NC(=O)[C@H](C)NC(=O)[C@H](C)NC(=O)[C@@H](NC(=O)[C@H](CO)NC(=O)[C@H](CC(C)C)NC(=O)[C@H](CCC(N)=O)NC(=O)[C@H](CO)NC(=O)[C@H](C)NC(=O)C[C@H](NC(=O)CCCCCCCCCCCCCCCCCCC(=O)O)C(=O)O)[C@@H](C)O)[C@@H](C)O)C(=O)N[C@@H](CC(C)C)C(=O)N1CCC[C@H]1C(=O)N1CCC[C@H]1C(=O)N[C@H](C(=O)N[C@@H](CC(N)=O)C(=O)N[C@H](C(=O)NCC(=O)N[C@@H](CO)C(=O)N[C@@H](CC(N)=O)C(=O)N[C@H](C(=O)N1C[C@H](O)C[C@H]1C(N)=O)[C@@H](C)O)C(C)C)[C@@H](C)O [M27] ({C20 diacid-βAsp}-ASQLSTAATQRLADFLRHSSNNLKPILPPTNVGSNT[Hyp]-NH2) | 78 | 0.064 |
| CC[C@H](C)[C@H](NC(=O)[C@H](CC(=O)O)NC(=O)[C@H](CCCNC(=N)N)NC(=O)[C@H](CC(=O)O)NC(=O)[C@H](CCCNC(=N)N)NC(=O)[C@H](CC(=O)O)NC(=O)[C@@H](NC(=O)[C@H](Cc1ccccc1)NC(=O)[C@H](Cc1c[nH]cn1)NC(=O)[C@H](CCCNC(=N)N)NC(=O)[C@H](CC(C)C)NC(=O)[C@H](Cc1ccccc1)NC(=O)[C@H](CC(=O)O)NC(=O)[C@H](C)NC(=O)[C@H](CC(C)C)NC(=O)[C@H](CCCNC(=N)N)NC(=O)[C@H](CCC(N)=O)NC(=O)[C@@H](NC(=O)[C@H](C)NC(=O)[C@H](C)NC(=O)[C@@H](NC(=O)[C@H](CO)NC(=O)[C@H](CC(C)C)NC(=O)[C@H](CCC(N)=O)NC(=O)[C@H](CO)NC(=O)[C@H](C)NC(=O)[C@H]1CC[C@H](CNC(=O)CCCCCCCCCCCCCCCCCCC(=O)O)CC1)[C@@H](C)O)[C@@H](C)O)[C@@H](C)O)C(=O)N[C@@H](CC(C)C)C(=O)N1CCC[C@H]1C(=O)N1CCC[C@H]1C(=O)N[C@H](C(=O)N[C@@H](CC(N)=O)C(=O)N[C@H](C(=O)NCC(=O)N[C@@H](CO)C(=O)N[C@@H](CC(N)=O)C(=O)N[C@H](C(=O)N1CCC[C@H]1C(N)=O)[C@@H](C)O)C(C)C)[C@@H](C)O [M14] ({C20 diacid-Trx}-ASQLSTAATQRLADFLRHFTDRDRDILPPTNVGSNTP-NH2) | 136 |  |
| CC[C@H](C)[C@H](NC(=O)[C@H](CC(=O)O)NC(=O)[C@H](CCCNC(=N)N)NC(=O)[C@H](CC(=O)O)NC(=O)[C@H](CCCNC(=N)N)NC(=O)[C@H](CC(=O)O)NC(=O)[C@@H](NC(=O)[C@H](Cc1ccccc1)NC(=O)[C@H](Cc1c[nH]cn1)NC(=O)[C@H](CCCNC(=N)N)NC(=O)[C@H](CC(C)C)NC(=O)[C@H](Cc1ccccc1)NC(=O)[C@H](CC(=O)O)NC(=O)[C@H](C)NC(=O)[C@H](CC(C)C)NC(=O)[C@H](CCCNC(=N)N)NC(=O)[C@H](CCC(N)=O)NC(=O)[C@@H](NC(=O)[C@H](C)NC(=O)[C@H](C)NC(=O)[C@@H](NC(=O)[C@H](CO)NC(=O)[C@H](CC(C)C)NC(=O)[C@H](CCC(N)=O)NC(=O)[C@H](CO)NC(=O)[C@H](C)NC(=O)CC[C@H](NC(=O)CCCCCCCCCCCCCCCCC(=O)O)C(=O)O)[C@@H](C)O)[C@@H](C)O)[C@@H](C)O)C(=O)N[C@@H](CC(C)C)C(=O)N1CCC[C@H]1C(=O)N1CCC[C@H]1C(=O)N[C@H](C(=O)N[C@@H](CC(N)=O)C(=O)N[C@H](C(=O)NCC(=O)N[C@@H](CO)C(=O)N[C@@H](CC(N)=O)C(=O)N[C@H](C(=O)N1CCC[C@H]1C(N)=O)[C@@H](C)O)C(C)C)[C@@H](C)O [M22] ({C18 diacid-γGlu}-ASQLSTAATQRLADFLRHFTDRDRDILPPTNVGSNTP-NH2) | 198 | 0.016 |

Other lines, results leading:

| Relative activity [%] | EC50 [nM] | Structure (SMILES) |
| --- | --- | --- |
| 30 | 0.168 | CC[C@H](C)[C@H](NC(=O)[C@@H]1CCCN1C(=O)[C@H](CCCCN)NC(=O)[C@H](CC(C)C)NC(=O)[C@H](CC(N)=O)NC(=O)[C@H](CC(N)=O)NC(=O)[C@H](CO)NC(=O)[C@H](CO)NC(=O)[C@H](Cc1c[nH]cn1)NC(=O)[C@H](CCCNC(=N)N)NC(=O)[C@H](CC(C)C)NC(=O)[C@H](Cc1ccccc1)NC(=O)[C@H](CC(=O)O)NC(=O)[C@H](C)NC(=O)[C@H](CC(C)C)NC(=O)[C@H](CCCNC(=N)N)NC(=O)[C@H](CCC(N)=O)NC(=O)[C@@H](NC(=O)[C@H](C)NC(=O)[C@H](C)NC(=O)[C@@H](NC(=O)[C@H](CO)NC(=O)[C@H](CC(C)C)NC(=O)[C@H](CCC(N)=O)NC(=O)[C@H](CO)NC(=O)[C@H](C)NC(=O)COCCOCCNC(=O)COCCOCCNC(=O)CC[C@H](NC(=O)CCCCCCCCCCCCCCCCCCC(=O)O)C(=O)O)[C@@H](C)O)[C@@H](C)O)C(=O)N[C@@H](CC(C)C)C(=O)N1CCC[C@H]1C(=O)N1CCC[C@H]1C(=O)N[C@H](C(=O)N[C@@H](CC(N)=O)C(=O)N[C@H](C(=O)NCC(=O)N[C@@H](CO)C(=O)N[C@@H](CC(N)=O)C(=O)N[C@H](C(=O)N1C[C@H](O)C[C@H]1C(N)=O)[C@@H](C)O)C(C)C)[C@@H](C)O [M31] ({C20 diacid-γGlu-AEEA-AEEA}-ASQLSTAATQRLADFLRHSSNNLKPILPPTNVGSNT[Hyp]-NH2) |
| 128 | 0.039 | CC[C@H](C)[C@H](NC(=O)[C@@H]1CCCN1C(=O)[C@H](CCCCN)NC(=O)[C@H](CC(C)C)NC(=O)[C@H](CC(N)=O)NC(=O)[C@H](CC(N)=O)NC(=O)[C@H](CO)NC(=O)[C@H](CO)NC(=O)[C@H](Cc1c[nH]cn1)NC(=O)[C@H](CCCNC(=N)N)NC(=O)[C@H](CC(C)C)NC(=O)[C@H](Cc1ccccc1)NC(=O)[C@H](CC(=O)O)NC(=O)[C@H](C)NC(=O)[C@H](CC(C)C)NC(=O)[C@H](CCCNC(=N)N)NC(=O)[C@H](CCC(N)=O)NC(=O)[C@@H](NC(=O)[C@H](C)NC(=O)[C@H](C)NC(=O)[C@@H](NC(=O)[C@H](CO)NC(=O)[C@H](CC(C)C)NC(=O)[C@H](CCC(N)=O)NC(=O)[C@H](CO)NC(=O)[C@H](C)NC(=O)[C@H](CC(=O)O)NC(=O)CCCCCCCCCCCCCCCCCCC(=O)O)[C@@H](C)O)[C@@H](C)O)C(=O)N[C@@H](CC(C)C)C(=O)N1CCC[C@H]1C(=O)N1CCC[C@H]1C(=O)N[C@H](C(=O)N[C@@H](CC(N)=O)C(=O)N[C@H](C(=O)NCC(=O)N[C@@H](CO)C(=O)N[C@@H](CC(N)=O)C(=O)N[C@H](C(=O)N1C[C@H](O)C[C@H]1C(N)=O)[C@@H](C)O)C(C)C)[C@@H](C)O [M28] ({C20 diacid}-DASQLSTAATQRLADFLRHSSNNLKPILPPTNVGSNT[Hyp]-NH2) |
| 94 | 0.026 | CC[C@H](C)[C@H](NC(=O)[C@H](CC(=O)O)NC(=O)[C@H](CCCNC(=N)N)NC(=O)[C@H](CC(=O)O)NC(=O)[C@H](CCCNC(=N)N)NC(=O)[C@H](CC(=O)O)NC(=O)[C@@H](NC(=O)[C@H](Cc1ccccc1)NC(=O)[C@H](Cc1c[nH]cn1)NC(=O)[C@H](CCCNC(=N)N)NC(=O)[C@H](CC(C)C)NC(=O)[C@H](Cc1ccccc1)NC(=O)[C@H](CC(=O)O)NC(=O)[C@H](C)NC(=O)[C@H](CC(C)C)NC(=O)[C@H](CCCNC(=N)N)NC(=O)[C@H](CCC(N)=O)NC(=O)[C@@H](NC(=O)[C@H](C)NC(=O)[C@H](C)NC(=O)[C@@H](NC(=O)[C@H](CO)NC(=O)[C@H](CC(C)C)NC(=O)[C@H](CCC(N)=O)NC(=O)[C@H](CO)NC(=O)[C@H](C)NC(=O)COCCOCCNC(=O)COCCOCCNC(=O)[C@H](CCC(=O)O)NC(=O)CCCCCCCCCCCCCCCCCCC(=O)O)[C@@H](C)O)[C@@H](C)O)[C@@H](C)O)C(=O)N[C@@H](CC(C)C)C(=O)N1CCC[C@H]1C(=O)N1CCC[C@H]1C(=O)N[C@H](C(=O)N[C@@H](CC(N)=O)C(=O)N[C@H](C(=O)NCC(=O)N[C@@H](CO)C(=O)N[C@@H](CC(N)=O)C(=O)N[C@H](C(=O)N1CCC[C@H]1C(N)=O)[C@@H](C)O)C(C)C)[C@@H](C)O [M17] ({C20 diacid}-E[AEEA][AEEA]ASQLSTAATQRLADFLRHFTDRDRDILPPTNVGSNTP-NH2) |
